One molecule from ChEMBL document CHEMBL5260822, “Structure-based design and synthesis of 2,4-diaminopyrimidines as EGFR L858R/T790M selective inhibitors for NSCLC” (Eur J Med Chem, 2017) can be followed below.

A short description of data set [1]: Half life in Sprague-Dawley rat at 1 mg/kg, iv and measured after 24 hrs by LC-MS/MS analysis. Format: ADME, organism-based. To be noted: in vivo.
The next data set concerns NCI-H1975. Nature of the data set: Inhibition of Akt signalling in EGF-stimulated human NCI-H1975 cells harboring EGFR L858R/T790M double mutant assessed as […] at 0.1 to 100 nM and measured after 2 hrs by Western blot analysis. It counts as cell-based. To be noted: dose 0.1-100 nM.
Data set [2] addresses MAP kinase-interacting serine/threonine-protein kinase 2 (Homo sapiens) (UniProt Q9HBH9). Nature of the data set: Inhibition of MKNK2 (unknown origin) at 1000 nM by DiscoverX KINOMEscan assay relative to control; values are per cent of control.
Data set [3] concerns the target Epidermal growth factor receptor (Homo sapiens, UniProt P00533, L858R/T790M). Nature of the data set: Inhibition of EGFR L858R/T790M mutant (unknown origin) expressed in baculovirus expression system by ELISA. (In general: An ELISA detects its analyte on a solid surface through an enzyme-linked reagent.)

What is called half-life is the time in which the quantity being followed falls by half. A high value points to slow decline. One may read the residual activity as the signal under treatment as a percentage of the control signal. A lower residual activity goes with a large loss of activity. The term IC50 denotes the concentration at which inhibition is half-maximal. Low values mean inhibition by little substance, high ones a need for much substance.

Chain of Epidermal growth factor receptor (P00533 25-1210 T790M/L858R limits assumed): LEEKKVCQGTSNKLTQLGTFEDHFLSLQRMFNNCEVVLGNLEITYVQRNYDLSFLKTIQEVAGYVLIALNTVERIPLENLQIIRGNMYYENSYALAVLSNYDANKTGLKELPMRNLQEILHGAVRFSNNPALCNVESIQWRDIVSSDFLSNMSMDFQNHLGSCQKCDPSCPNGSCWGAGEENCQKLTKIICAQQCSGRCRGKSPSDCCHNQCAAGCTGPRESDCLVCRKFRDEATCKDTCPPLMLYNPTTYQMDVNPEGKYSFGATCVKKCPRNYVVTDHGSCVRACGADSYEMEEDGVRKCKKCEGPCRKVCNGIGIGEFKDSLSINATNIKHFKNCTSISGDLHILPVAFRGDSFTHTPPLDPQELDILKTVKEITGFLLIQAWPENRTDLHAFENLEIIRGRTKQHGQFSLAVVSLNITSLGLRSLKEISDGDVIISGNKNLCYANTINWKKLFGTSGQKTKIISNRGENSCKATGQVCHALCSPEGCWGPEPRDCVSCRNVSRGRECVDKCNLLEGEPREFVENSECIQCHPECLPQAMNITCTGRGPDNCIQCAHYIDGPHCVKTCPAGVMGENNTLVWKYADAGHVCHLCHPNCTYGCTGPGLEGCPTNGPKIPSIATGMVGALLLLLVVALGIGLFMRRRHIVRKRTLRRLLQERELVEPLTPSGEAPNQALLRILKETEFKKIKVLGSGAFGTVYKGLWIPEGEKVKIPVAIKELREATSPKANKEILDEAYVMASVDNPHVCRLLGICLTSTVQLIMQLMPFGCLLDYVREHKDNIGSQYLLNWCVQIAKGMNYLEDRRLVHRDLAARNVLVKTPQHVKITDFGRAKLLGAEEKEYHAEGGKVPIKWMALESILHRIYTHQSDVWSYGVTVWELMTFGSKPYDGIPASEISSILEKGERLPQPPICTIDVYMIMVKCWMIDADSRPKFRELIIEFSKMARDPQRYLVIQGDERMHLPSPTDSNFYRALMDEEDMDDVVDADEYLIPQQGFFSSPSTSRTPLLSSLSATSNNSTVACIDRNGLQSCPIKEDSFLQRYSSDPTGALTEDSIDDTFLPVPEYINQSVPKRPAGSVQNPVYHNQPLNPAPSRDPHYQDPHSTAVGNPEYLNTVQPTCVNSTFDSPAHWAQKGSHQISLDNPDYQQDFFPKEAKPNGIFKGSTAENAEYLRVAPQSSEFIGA
Chain of MAP kinase-interacting serine/threonine-protein kinase 2 (Homo sapiens) (Q9HBH9 whole entry, looked up): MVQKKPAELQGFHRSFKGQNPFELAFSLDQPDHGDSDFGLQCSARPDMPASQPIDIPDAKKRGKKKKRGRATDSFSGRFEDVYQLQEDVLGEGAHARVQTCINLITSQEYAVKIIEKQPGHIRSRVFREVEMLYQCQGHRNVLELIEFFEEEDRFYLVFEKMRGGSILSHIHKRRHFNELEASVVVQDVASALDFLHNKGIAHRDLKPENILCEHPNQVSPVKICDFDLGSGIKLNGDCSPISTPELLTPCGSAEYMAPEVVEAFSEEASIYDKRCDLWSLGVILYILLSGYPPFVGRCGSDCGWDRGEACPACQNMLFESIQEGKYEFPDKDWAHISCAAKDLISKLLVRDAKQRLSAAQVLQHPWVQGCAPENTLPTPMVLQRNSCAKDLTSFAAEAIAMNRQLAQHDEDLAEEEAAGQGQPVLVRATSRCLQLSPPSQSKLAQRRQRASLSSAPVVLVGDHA

In data set [1], `C=CC(=O)Nc1cc(Nc2ncc(Br)c(Nc3ccc4ccn(C)c4c3)n2)c(OC)cc1N1CCN(C)CC1` gave a half-life of 3.47 h. For the same molecule, in the data set with NCI-H1975, the inhibition result was “Dose-Dependent Effect”. In addition, the residual activity in data set [2] is below 10%. For the same molecule, in data set [3], the IC50 is 4.1 nM.
